Read-outs that look alike come from different tables or passages of the source.
How the values were obtained:
[1] = In vivo pharmacokinetics in mice (oral bioavailability, clearance); conditions: for bioavailability: female, BomTac:NMRI-Foxn1nu, mouse, plasma, mice, AUC_DN oral (typically 30 mg/kg) / AUC_DN IV (5 mg/kg) * 100, read-out: F% (oral bioavailability in mice); for Mouse CL (% Qh): mouse clearance as % of hepatic blood flow
Protocol: Bioavailability in mice was determined by comparing plasma exposure after oral administration with plasma exposure after intravenous administration (see Experimental Part). The investigated data set includes PROTACs with very low (F < 1%), low (F < 5%) and medium/high (F > 5%, in bold in Table ) oral bioavailability. Only low-clearance PROTACs were investigated, with clearance of less than 10% of the hepatic blood flow, to avoid extensive hepatic first-pass effect (Mouse CL see Table S2).
The authors confirm that the research in this study complies with all relevant ethical regulations. All animal studies were approved by the internal ethics committee (called “ethics committee”) of Boehringer Ingelheim RCV GmbH & Co KG in the department of Cancer Pharmacology and Disease Positioning. Furthermore, all protocols were approved by the Austrian governmental committee (MA 60 Veterinary office; approval numbers GZ: 903122/2017/21, GZ: 154399/2018/16, GZ: MA 58–670393–2019–18, GZ: MA 58–546776–2022–13). Female BomTac:NMRI-Foxn1nu mice were obtained from Taconic Denmark at an age of 6–8 weeks. After arrival at the local AAALAC accredited animal facility at Boehringer Ingelheim RCV GmbH & Co KG mice were allowed to adjust to housing conditions for at least 5 days before the start of the experiment, i.e. mice in all experiments were 7–9 weeks old. Mice were group-housed under pathogen-free and controlled environmental conditions (21 ± 1.5 °C temperature, 55 ± 10% humidity) and handled according to the institutional, governmental and European Union guidelines (Austrian Animal Protection Laws, GV SOLAS and FELASA). Animal studies were approved as described in the Ethics section. Food and water were provided ad libitum.
All pharmacokinetic studies were conducted with three mice per dose group and testing route. Oral bioavailability was determined by comparing the dose-normalized area under the plasma concentration–time curve (AUC_DN) following oral administration to the AUC_DN after intravenous (IV) administration of the same drug. All oral administrations were conducted with a volume of application of 10 mL/kg, typically at a dose of 30 mg/kg as a solution in a 25% to 40% HP-β-CD at a pH range of 4 to 5. Intravenous administrations were conducted at a dose of 5 mg/kg, with a volume of application of 5 mL/kg in 25% HP-β-CD at a pH of 5. Blood samples were obtained from the vena saphena at five time points after each administration, with the aim of measuring the drug concentration in the plasma. The concentrations of the compound in plasma samples were determined by quantitative HPLC-MS/MS, employing an internal standard. Calibration and quality control samples were prepared using blank plasma from untreated animals. The samples were precipitated with acetonitrile and subsequently injected into an HPLC system (Agilent 1200). The separation was conducted using a gradient of 5 mmol/L ammonium acetate at pH 4.0 and acetonitrile with 0.1% formic acid on a 2.1 mm by 50 mm XBridge BEH C18 reversed-phase column with 2.5 μm particles (Waters). The HPLC was interfaced with an ESI-operated triple quadrupole mass spectrometer (5000 or 6500+ Triple Quad System, SCIEX) operated in multiple reaction monitoring mode. The chromatograms were analyzed using Analyst (SCIEX), and the pharmacokinetic parameters, such as AUC_DN, were calculated using noncompartmental analysis with BI-proprietary software.
The oral bioavailability (F%) was calculated using the following formula: F% = AUC_DN_oral/AUC_DN_IV) * 100.

[2] = Bidirectional Caco-2 permeability and efflux ratio assay; format: in vitro ADME; conditions: human
[3] = with Zosuquidar (P-gp inhibitor), concentration not given, Caco-2, in the presence of a Pgp inhibitor (Zosuquidar), read-out: ER (+Pgp inhibitor)
[4] = Caco-2, in the absence of an inhibitor, read-out: ER (Caco-2 efflux ratio)

Row | bioavailability [1] | Mouse CL (% Qh) [1] | efflux ratio at 1 μM [2, 3] | efflux ratio at 1 μM [2, 4] | Structure (SMILES)
1 | 0.9% | 8.5 % Qh | 3 | – | Cc1ncsc1-c1ccc([C@H](COCCN2CCC(c3ccc4c(c3)n(C3CCCC3)c3nc(=O)c5c(Br)cccc5n43)CC2)NC(=O)[C@@H]2C[C@@H](O)CN2C(=O)[C@@H](NC(=O)C2(F)CC2)C(C)(C)C)cc1 [B-1]
2 | 1.7% | 5.4 % Qh | 1.8 | – | Cc1ncsc1-c1ccc([C@H](CO[C@H](C)CN2CCC(c3ccc4c(c3)n(C3CCCC3)c3nc(=O)c5c(Br)cccc5n43)CC2)NC(=O)[C@@H]2C[C@@H](O)CN2C(=O)[C@@H](NC(=O)C2(F)CC2)C(C)(C)C)cc1 [B-2]
3 | 2.3% | 7.1 % Qh | 2.2 | 23.9 | Cc1ncsc1-c1ccc([C@H](CO[C@@H](C)CN2CCC(c3ccc4c(c3)n(C3CCCC3)c3nc(=O)c5c(Br)cccc5n43)CC2)NC(=O)[C@@H]2C[C@@H](O)CN2C(=O)[C@@H](NC(=O)C2(F)CC2)C(C)(C)C)cc1 [B-3]
4 | 90.9% | 6.0 % Qh | 1.1 | 31.3 | Cc1ncsc1-c1ccc([C@H](COC(C)(C)CN2CCC(c3ccc4c(c3)n(C3CCCC3)c3nc(=O)c5c(Br)cccc5n43)CC2)NC(=O)[C@@H]2C[C@@H](O)CN2C(=O)[C@@H](NC(=O)C2(F)CC2)C(C)(C)C)cc1 [B-4]

The next lines start with the compound.

Row | Structure (SMILES) | bioavailability [1] | Mouse CL (% Qh) [1] | efflux ratio at 1 μM [2, 3] | efflux ratio at 1 μM [2, 4]
5 | Cc1ncsc1-c1ccc([C@H](CCCN2CCC(c3ccc4c(c3)n(C3CCCC3)c3nc(=O)c5c(Br)cccc5n43)CC2)NC(=O)[C@@H]2C[C@@H](O)CN2C(=O)[C@@H](NC(=O)C2(F)CC2)C(C)(C)C)cc1 [A3-1] | 0.6% | 7.9 % Qh | 1.8 | –
6 | Cc1ncsc1-c1ccc([C@H](C[C@H](C)CN2CCC(c3ccc4c(c3)n(C3CCCC3)c3nc(=O)c5c(Br)cccc5n43)CC2)NC(=O)[C@@H]2C[C@@H](O)CN2C(=O)[C@@H](NC(=O)C2(F)CC2)C(C)(C)C)cc1 [A3-2] | 5.4% | 3.6 % Qh | 0.9 | 9
7 | Cc1ncsc1-c1ccc([C@H](C[C@@H](C)CN2CCC(c3ccc4c(c3)n(C3CCCC3)c3nc(=O)c5c(Br)cccc5n43)CC2)NC(=O)[C@@H]2C[C@@H](O)CN2C(=O)[C@@H](NC(=O)C2(F)CC2)C(C)(C)C)cc1 [A3-3] | 16.4% | 9.3 % Qh | 0.4 | 5.1
8 | Cc1ncsc1-c1ccc([C@H](CCCCCN2CCC(c3ccc4c(c3)n(C3CCCC3)c3nc(=O)c5c(Br)cccc5n43)CC2)NC(=O)[C@@H]2C[C@@H](O)CN2C(=O)[C@@H](NC(=O)C2(F)CC2)C(C)(C)C)cc1 [A5-1] | 4.3% | 2.5 % Qh | 1.6 | 24.2
9 | Cc1ncsc1-c1ccc([C@H](CC[C@H](C)CCN2CCC(c3ccc4c(c3)n(C3CCCC3)c3nc(=O)c5c(Br)cccc5n43)CC2)NC(=O)[C@@H]2C[C@@H](O)CN2C(=O)[C@@H](NC(=O)C2(F)CC2)C(C)(C)C)cc1 [A5-2] | 22.1% | 2.3 % Qh | 1.6 | 7.5
10 | Cc1ncsc1-c1ccc([C@H](CC[C@@H](C)CCN2CCC(c3ccc4c(c3)n(C3CCCC3)c3nc(=O)c5c(Br)cccc5n43)CC2)NC(=O)[C@@H]2C[C@@H](O)CN2C(=O)[C@@H](NC(=O)C2(F)CC2)C(C)(C)C)cc1 [A5-3] | 31.5% | 3.9 % Qh | 1 | 3.3
11 | Cc1ncsc1-c1ccc([C@@H](CC[C@@H](C)CCN2CCC(c3ccc4c(c3)n(C3CCCC3)c3nc(=O)c5c(Br)cccc5n43)CC2)NC(=O)[C@@H]2C[C@@H](O)CN2C(=O)[C@@H](NC(=O)C2(F)CC2)C(C)(C)C)cc1 [A5-4] | 1.2% | 2.8 % Qh | 0.9 | –
